Where two headings read alike, the source gives them in different places.
Columns and labels:
[1] = test system: Myzus persicae (green peach aphid); assay: Example B14: drench activity against Myzus persicae in field soil, persistence, comparison with state of the art; assay type: in vivo; settings: for mortality at 12.5 ppm: Myzus persicae, soil, pepper plants in field soil, read-out: Mortality (%) xx days after application (drench, systemic action, persistence)
Procedure: (§1) Six weeks old pepper plants cultivated in field soil are treated as drench application at various rates (mg a.i./liter soil). The same day, plants are infested with a mixed population of M. persicae and incubated in the greenhouse under optimal greenhouse conditions. Samples are assessed 7 days after infestation on mortality. Treated plants are re-infested 7, 14, 21 and 28 days after application. Evaluation is always done 7 days after infestation. Plants are also checked for damage (phytotoxicity), visual assessment being made using a 0-100% rating scale (100%=total damage to plant; 0%=no damage to plant).

[2] = test system: pepper plants; settings: in vivo
Procedure: as §1

[3] = test system: Myzus persicae (green peach aphid); assay: Example B2: Myzus persicae, mixed population, systemic/feeding activity, curative; settings: 144 h, read-out: activity
[4] = test system: Aphis craccivora (cowpea aphid); assay: Example B10: Aphis craccivora, mixed population, systemic/feeding; assay type: in vivo; settings: 144 h, roots of infested pea seedlings in test solution, 6 days, mortality
Description: 6 days later, samples are checked for mortality.

[5] = test system: Thrips Tabaci (onion thrips); assay: Example B3: Thrips tabaci, mixed population, feeding/residual contact activity, preventive; assay type: in vivo; settings: foliar, 144 h, sunflower leaf discs sprayed, 6 days incubation, mortality
[6] = test system: Aphis craccivora (cowpea aphid); assay: Example B11: translaminar activity against Aphis craccivora; assay type: in vivo; settings: 120 h, French bean leaves, aphids on lower side, upper side painted, 5 days, mortality
Procedure: Translaminar Activity Against Aphis craccivora (Cowpea Aphid) French bean leaves (Phaseolus vulgaris) are infested with about 20 mixed age individuals on the lower leaf side using clip cages. 1 day after the infestation, the upper side of the leaves is treated with the test solution by painting. 5 days later, samples are checked for mortality.

[7] = test system: Myzus persicae (green peach aphid); assay: Example B13: drench activity against Myzus persicae; assay type: in vivo; settings: 168 h, pea seedlings in field soil, 7 days after infestation, mortality
Procedure: Drench Activity Against Myzus persicae (Green Peach Aphid) Pea seedlings cultivated in field soil are treated as drench application and infested with a mixed population of M. persicae. 7 days after infestation, samples are checked for mortality.

[8] = test system: Tetranychus urticae (two-spotted spider mite); assay: Example B4: Tetranychus urticae, mixed population, feeding/residual contact activity, preventive; assay type: in vivo; settings: foliar, 192 h, bean leaf discs sprayed, 8 days, egg, larval and adult mortality
Description: Activity Against Tetranychus urticae (Two-Spotted Spider Mite) (Mixed Population, Feeding/Residual Contact Activity, Preventive) Bean leaf discs on agar in 24-well microtiter plates are sprayed with test solutions. […] 8 days later, discs are checked for egg mortality, larval mortality, and adult mortality.

[9] = test system: Myzus persicae (green peach aphid); assay: Example B16: Myzus persicae on pepper plants, feeding/residual contact activity; assay type: in vivo; settings: 144 h, infested pepper plants sprayed, 6 days after treatment, mortality, read-out: activity against Myzus persicae
[10] = test system: Aphis craccivora (cowpea aphid); assay: Example B15: Aphis craccivora, mixed population, adjuvant effect, curative; assay type: in vivo; settings: for Abbott's efficacy (%) against Aphis craccivora: 3 ppm, formulated as EC050, adjuvant 0.1% (v/v) where named, broad bean plants, 7 days after treatment
Procedure: One day after infestation, plants are treated with diluted test solutions of the compound formulated as EC050 in a spray chamber (4 replicates). […] Efficacy was calculated with the aid of Abbott's formula.

[11] = test system: Nilaparvata lugens (brown rice planthopper); assay: Example B8: Nilaparvata lugens, larvicide, feeding/contact; assay type: in vivo; settings: rice seedlings sprayed, N3 nymphs, 6-12 days after treatment
Procedure: Activity Against Nilaparvata lugens (Brown Rice Planthopper) (Larvicide, Feeding/Contact) Rice seedlings are treated with the diluted test solutions in a spray chamber. After drying, they are infested with 20 N3 nymphs (2 replicates). 6-12 days after the treatment samples are checked for mortality, growth regulation, and effects on the F1 generation.

[12] = test system: Myzus persicae (green peach aphid); assay: Example B1: Myzus persicae, mixed population, feeding/residual contact activity, preventive; settings: foliar, 144 h, read-out: activity
[13] = 0 days after application (infestation day; evaluated 7 days after infestation)
[14] = 14 days after application (re-infestation; evaluated 7 days after infestation)
[15] = 21 days after application (re-infestation; evaluated 7 days after infestation)
[16] = 28 days after application (re-infestation; evaluated 7 days after infestation)
[17] = 168 h, 7 days after application (re-infestation; evaluated 7 days after infestation)

SMILES | mortality at 12.5 ppm [1, 13] [%] | mortality at 12.5 ppm [1, 14] [%] | mortality at 12.5 ppm [1, 15] [%] | mortality at 12.5 ppm [1, 16] [%] | mortality at 12.5 ppm [1, 17] [%] | plant compatibility on pepper plants (in words) [2] | insecticidal action on Myzus persicae (in words) ([1]; summary of Table B14, drench) | pest or weed control at 400 ppm [3] [%] | pest or weed control at 400 ppm [4] [%] | pest or weed control at 400 ppm [5] [%] | pest or weed control at 400 ppm [6] [%] | pest or weed control at 25 ppm [7] [%] | pest or weed control at 400 ppm [8] [%] | pest or weed control at 200 ppm [9] [%] | Abbott's efficacy (%) against Aphis craccivora ([10]; Table B15A) [%] | Abbott's efficacy (%) against Aphis craccivora ([10]; Table B15B) [%] | effect of adjuvants on insecticidal activity (in words) ([10]; summary of Tables B15A and B15B) | pest or weed control at 400 ppm [11] [%] | pest or weed control at 400 ppm [12] [%]
CCOC(=O)OC1=C(c2c(C)cc(C)cc2C)C(=O)NC12CCN(OC)CC2 [A18, reference compound] | 100 | 98 | 95 | 95 | 100 | damages these to an untolerable high extend | – | – | – | – | – | – | – | – | – | – | – | – | –
CCOC(=O)OC1=C(c2c(C)cc(C)cc2C)C(=O)N(C)C12CCN(OC)CC2 [P1.2, Carbonic acid ethyl ester 8-methoxy-1-methyl-2-oxo-3-(2,4,6-trimethyl-phenyl)-1,8-diaza-spiro[4.5]dec-3-en-4-yl ester] | 98 | 98 | 100 | 98 | 98 | no damage at all | very similar to the action of the compound of the state of the art | > 80 | > 80 | > 80 | > 80 | > 80 | > 80 | ≥ 80 | 54 | 25 | enhance the insecticidal activity of compound P1.2 significantly | > 80 | > 80
CCOC(=O)OC1=C(c2c(C)cc(C)cc2C)C(=O)N(COC)C12CCN(OC)CC2 [P1.3] | – | – | – | – | – | – | – | > 80 | > 80 | > 80 | > 80 | > 80 | > 80 | – | – | – | – | > 80 | > 80
CCOCN1C(=O)C(c2c(C)cc(C)cc2C)=C(OC(=O)OCC)C12CCN(OC)CC2 [P1.4] | – | – | – | – | – | – | – | > 80 | > 80 | – | > 80 | > 80 | – | ≥ 80 | – | – | – | > 80 | > 80
CCOC(=O)OC1=C(c2c(C)cc(C)cc2Br)C(=O)N(C)C12CCN(OC)CC2 [P1.11] | – | – | – | – | – | – | – | > 80 | > 80 | – | > 80 | > 80 | – | ≥ 80 | – | – | – | > 80 | > 80
CCOC(=O)OC1=C(c2c(C)cc(C)cc2C)C(=O)N(COCCOC)C12CCN(OC)CC2 [P1.18] | – | – | – | – | – | – | – | > 80 | > 80 | > 80 | > 80 | > 80 | > 80 | – | – | – | – | > 80 | > 80
CON1CCC2(CC1)C(O)=C(c1c(C)cc(C)cc1C)C(=O)N2C [P2.2, 4-hydroxy-8-methoxy-1-methyl-3-(2,4,6-trimethyl-phenyl)-1,8-diaza-spiro[4.5]dec-3-en-2-one] | – | – | – | – | – | – | – | > 80 | > 80 | > 80 | > 80 | > 80 | > 80 | ≥ 80 | – | – | – | > 80 | > 80
COCN1C(=O)C(c2c(C)cc(C)cc2C)=C(O)C12CCN(OC)CC2 [P2.6] | – | – | – | – | – | – | – | > 80 | > 80 | > 80 | > 80 | > 80 | > 80 | ≥ 80 | – | – | – | > 80 | > 80
COCCN1C(=O)C(c2c(C)cc(C)cc2C)=C(O)C12CCN(OC)CC2 [P2.7] | – | – | – | – | – | – | – | – | > 80 | – | > 80 | > 80 | – | – | – | – | – | > 80 | > 80
CON1CCC2(CC1)C(O)=C(c1c(C)cc(C)cc1Br)C(=O)N2C [P2.14] | – | – | – | – | – | – | – | – | > 80 | – | > 80 | > 80 | > 80 | – | – | – | – | > 80 | > 80
COCCOCN1C(=O)C(c2c(C)cc(C)cc2C)=C(O)C12CCN(OC)CC2 [P2.19] | – | – | – | – | – | – | – | > 80 | > 80 | > 80 | > 80 | > 80 | > 80 | – | – | – | – | > 80 | > 80
